This note sets out measurements from article PMC4767141, “Discovery of Potent, Orally Bioavailable, Small-Molecule Inhibitors of WNT Signaling from a Cell-Based Pathway Screen” (Journal of Medicinal Chemistry, 2015).

pIC50: −log10 of the molar value.

The target in data set [1] is T1, MST1 (Homo sapiens, UniProt Q13043).
T1 construct: purchased Millipore KinaseProfiler (kinases); Cerep (receptors and ion channels)
As to the kind of experiment: Millipore kinase panel. It counts as biochemical. The following applies: read-out: % Control.

A short description of data set [2]: In vitro reactive metabolite assay. It counts as in vitro ADME. The conditions noted are these: data not shown.
The nature of data set [3]: Clint determination. Type of data set: in vitro ADME. The following applies: mouse, microsomes, pH 7.4, mouse microsomes, read-out: Clint (μL/min/mg) Mouse.
Data set [4] addresses T2, TP (h) (TXA2/PGH2) (Homo sapiens, UniProt P21731).
T2 construct: purchased Millipore KinaseProfiler (kinases); Cerep (receptors and ion channels)
As to the kind of experiment: CEREP binding panel. The following applies: antagonist radioligand, read-out: % Inhibition of Control Specific Binding.

Data set [5] deals with CYP450 2C9 (Homo sapiens, UniProt P11712). As to the kind of experiment: CYP450 inhibition. Type of data set: in vitro ADME.
Data set [6] has as its target T3, CKIT(V560G) (Homo sapiens, UniProt P10721, V560G).
T3 construct: purchased Millipore KinaseProfiler (kinases); Cerep (receptors and ion channels)
As to the kind of experiment: Millipore kinase panel. The following applies: read-out: % Control. It counts as biochemical.

Data set [7] has as its target T4, PKBGAMMA (Homo sapiens, UniProt Q9Y243).
T4 construct: purchased Millipore KinaseProfiler (kinases); Cerep (receptors and ion channels)
As to the kind of experiment: Millipore kinase panel. It counts as biochemical. The conditions noted are these: read-out: % Control.

Data set [8] deals with PI3 KINASE (P110A(E545K)/P85A). As to the kind of experiment: Millipore kinase panel. Type of data set: biochemical. The conditions noted are these: 1 μM, ATP at Km. The procedure: (§1) Supplementary Table S3. Activity of compound 44 tested 1 μM across a panel of 209 non-mutated kinases (Millipore Panel: data expressed as percentage control response versus each kinase tested at its respective Km for ATP). No inhibition was considered sufficient to warrant follow-up with IC50 determination.
(§2) % Inhibition of % Inhibition of […]
(§3) α1 (non-selective) (antagonist radioligand) 8 NTS1 (NT1) (h) (agonist radioligand) -8 α2 (non-selective) (antagonist radioligand) 0 δ2 (DOP) (h) (agonist radioligand) 22 β1 (h) (agonist radioligand) 5 κ (KOP) (agonist radioligand) 72 […]
(§4) AT1 (h) (antagonist radioligand) 8 NOP (ORL1) (h) (agonist radioligand) 3 BZD (central) (agonist radioligand) 18 TP (h) (TXA2/PGH2) (antagonist radioligand) NT B2 (h) (agonist radioligand) 0 5-HT1A (h) (agonist radioligand) 19 […]
(§5) CCK1 (CCKA) (h) (agonist radioligand) 2 5-HT2A (h) (antagonist radioligand) 1 D1 (h) (antagonist radioligand) 7 5-HT2B (h) (agonist radioligand) 6
(§6) D2S (h) (antagonist radioligand) 5 5-HT3 (h) (antagonist radioligand) 9 ETA (h) (agonist radioligand) -9 5-HT5a (h) (agonist radioligand) 1
(§7) GABA (non-selective) (agonist radioligand) 5 5-HT6 (h) (agonist radioligand) 3 GAL2 (h) (agonist radioligand) 2 5-HT7 (h) (agonist radioligand) 1
(§8) CXCR2 (IL-8B) (h) (agonist radioligand) -6 sst (non-selective) (agonist radioligand) 4 CCR1 (h) (agonist radioligand) -4 VPAC1 (VIP1) (h) (agonist radioligand) 0 H1 (h) (antagonist radioligand) 16 V1a (h) (agonist radioligand) -7
(§9) H2 (h) (antagonist radioligand) -2 Ca2+ channel (L, verapamil site) (phenylalkylamine) (antagonist radioligand) 7 MC4 (h) (agonist radioligand) 4 KV channel (antagonist radioligand) -13 MT1 (ML1A) (h) (agonist radioligand) 34 SKCa channel (antagonist radioligand) 3 M1 (h) (antagonist radioligand) 21 Na+ channel (site 2) (antagonist radioligand) 29 M2 (h) (antagonist radioligand) 38 Cl- channel (GABA-gated) (antagonist radioligand) 31 M3 (h) (antagonist radioligand) 46 norepinephrine transporter (h) (antagonist radioligand) 14 NK2 (h) (agonist radioligand) -17 dopamine transporter (h) (antagonist radioligand) 40 5-HT transporter (h) (antagonist radioligand) 70 […]
(§10) receptors, ion channels and enzymes (CEREP). Results are expressed as percent inhibition of control specific binding. […]
(§11) kinases (Millipore Panel: data expressed as percentage control response versus each kinase tested […]
(§12) at its respective Km for ATP).
(§13) Supplementary Figure S1. Dose-dependent reduction of endogenous cMYC mRNA measured by RT-PCR (n = 8) after treatment of 7dF3 cells with 74 at the stated concentration for 2 h […]

The subject of data set [9] is PI3 KINASE (P110A(H1047R)/P85A). As to the kind of experiment: Millipore kinase panel. Type of data set: biochemical. The conditions noted are these: 1 μM, ATP at Km. The procedure:
as §1, §2, §3, §4, §5, §6, §7, §8, §9, §10, §11, §12, §13

For data set [10], the system named is PI3 KINASE (P85A). As to the kind of experiment: Millipore kinase panel. Type of data set: biochemical. The conditions noted are these: 1 μM, ATP at Km. The procedure: as §1, §2, §3, §4, §5, §6, §7, §8, §9, §10, §11, §12, §13
Data set [11] deals with PI3 KINASE (P110A/P65A). As to the kind of experiment: Millipore kinase panel. It counts as biochemical. The following applies: 1 μM, ATP at Km. The procedure:
as §1, §2, §3, §4, §5, §6, §7, §8, §9, §10, §11, §12, §13

The subject of data set [12] is PI3 KINASE (P110B/P85A). As to the kind of experiment: Millipore kinase panel. Type of data set: biochemical. The conditions noted are these: 1 μM, ATP at Km. The procedure: as §1, §2, §3, §4, §5, §6, §7, §8, §9, §10, §11, §12, §13
Data set [13] deals with PI3 KINASE (P110D/P85A). As to the kind of experiment: Millipore kinase panel. It counts as biochemical. The following applies: 1 μM, ATP at Km. The procedure: as §1, §2, §3, §4, §5, §6, §7, §8, §9, §10, §11, §12, §13
The subject of data set [14] is PI3 KINASE (P110A(E542K)/P85A). As to the kind of experiment: Millipore kinase panel. Type of data set: biochemical. The following applies: 1 μM, ATP at Km. The procedure:
as §1, §2, §3, §4, §5, §6, §7, §8, §9, §10, §11, §12, §13

The test system of data set [15] is CK1(Y). As to the kind of experiment: Millipore kinase panel. The conditions noted are these: 1 μM, ATP at Km. It counts as biochemical. The procedure:
as §1, §2, §3, §4, §5, §6, §7, §8, §9, §10, §11, §12, §13

The test system of data set [16] is PI3 KINASE (P65A). As to the kind of experiment: Millipore kinase panel. It counts as biochemical. The following applies: 1 μM, ATP at Km. The procedure:
as §1, §2, §3, §4, §5, §6, §7, §8, §9, §10, §11, §12, §13

The target of data set [17] is T5, EPHA4 (Homo sapiens, UniProt P54764).
T5 construct: purchased Millipore KinaseProfiler (kinases); Cerep (receptors and ion channels)
As to the kind of experiment: Millipore kinase panel. It counts as biochemical. The following applies: read-out: % Control.

The subject of data set [18] is TCF1 or TCF4. As to the kind of experiment: Endogenous TCF1 and TCF4 levels in COLO205-F1756 clone 4. Type of data set: cell-based, human. The conditions noted are these: COLO205-F1756 clone 4, 350 nM. From the text: Supplementary Figure S2. Levels of TCF1 and TCF4 in response to treatment of COLO205-
F1756 clone 4 (an APC-mutant human colorectal cancer cell line engineered to express a
(1 picture or pasted object on this page, not shown here)

In data set [19] the target is T6, TSSK2 (Homo sapiens, UniProt Q96PF2).
T6 construct: purchased Millipore KinaseProfiler (kinases); Cerep (receptors and ion channels)
As to the kind of experiment: Millipore kinase panel. Type of data set: biochemical. The conditions noted are these: read-out: % Control.

The target of data set [20] is T7, CHK2(R145W) (Homo sapiens, UniProt O96017, R145W).
T7 construct: purchased Millipore KinaseProfiler (kinases); Cerep (receptors and ion channels)
As to the kind of experiment: Millipore kinase panel. Type of data set: biochemical. The following applies: read-out: % Control.

In data set [21] the test system is RKO-F1522 cells. As to the kind of experiment: EF1-α promoter firefly luciferase control reporter. The conditions noted are these: Homo sapiens, read-out: IC50, firefly luciferase reporter downstream of the EF1-α promoter.
The target of data set [22] is T8, PKBBETA (Homo sapiens, UniProt P31751).
T8 construct: purchased Millipore KinaseProfiler (kinases); Cerep (receptors and ion channels)
As to the kind of experiment: Millipore kinase panel. It counts as biochemical. The following applies: read-out: % Control.

The target of data set [23] is T9, FGFR1(V561M) (Homo sapiens, UniProt P11362, V561M).
T9 construct: purchased Millipore KinaseProfiler (kinases); Cerep (receptors and ion channels)
As to the kind of experiment: Millipore kinase panel. Type of data set: biochemical. The following applies: read-out: % Control.

In data set [24] the target is T10, PKCEPSILON (Homo sapiens, UniProt Q02156).
T10 construct: purchased Millipore KinaseProfiler (kinases); Cerep (receptors and ion channels)
As to the kind of experiment: Millipore kinase panel. It counts as biochemical. The conditions noted are these: read-out: % Control.

T4 sequence (Q9Y243 whole entry): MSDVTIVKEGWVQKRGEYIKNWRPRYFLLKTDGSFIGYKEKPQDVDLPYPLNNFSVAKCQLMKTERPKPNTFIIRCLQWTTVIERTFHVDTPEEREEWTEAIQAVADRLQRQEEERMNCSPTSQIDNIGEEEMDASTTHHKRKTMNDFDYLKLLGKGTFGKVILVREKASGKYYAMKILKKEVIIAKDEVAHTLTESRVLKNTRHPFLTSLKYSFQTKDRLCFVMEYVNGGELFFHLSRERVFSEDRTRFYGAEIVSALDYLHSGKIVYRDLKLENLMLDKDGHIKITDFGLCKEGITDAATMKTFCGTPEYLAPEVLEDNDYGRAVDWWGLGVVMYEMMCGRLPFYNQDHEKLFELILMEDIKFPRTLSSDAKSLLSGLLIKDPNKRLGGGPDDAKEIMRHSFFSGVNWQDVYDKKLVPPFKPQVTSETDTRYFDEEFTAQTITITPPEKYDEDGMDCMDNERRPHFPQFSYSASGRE
T5 sequence (P54764 20-986): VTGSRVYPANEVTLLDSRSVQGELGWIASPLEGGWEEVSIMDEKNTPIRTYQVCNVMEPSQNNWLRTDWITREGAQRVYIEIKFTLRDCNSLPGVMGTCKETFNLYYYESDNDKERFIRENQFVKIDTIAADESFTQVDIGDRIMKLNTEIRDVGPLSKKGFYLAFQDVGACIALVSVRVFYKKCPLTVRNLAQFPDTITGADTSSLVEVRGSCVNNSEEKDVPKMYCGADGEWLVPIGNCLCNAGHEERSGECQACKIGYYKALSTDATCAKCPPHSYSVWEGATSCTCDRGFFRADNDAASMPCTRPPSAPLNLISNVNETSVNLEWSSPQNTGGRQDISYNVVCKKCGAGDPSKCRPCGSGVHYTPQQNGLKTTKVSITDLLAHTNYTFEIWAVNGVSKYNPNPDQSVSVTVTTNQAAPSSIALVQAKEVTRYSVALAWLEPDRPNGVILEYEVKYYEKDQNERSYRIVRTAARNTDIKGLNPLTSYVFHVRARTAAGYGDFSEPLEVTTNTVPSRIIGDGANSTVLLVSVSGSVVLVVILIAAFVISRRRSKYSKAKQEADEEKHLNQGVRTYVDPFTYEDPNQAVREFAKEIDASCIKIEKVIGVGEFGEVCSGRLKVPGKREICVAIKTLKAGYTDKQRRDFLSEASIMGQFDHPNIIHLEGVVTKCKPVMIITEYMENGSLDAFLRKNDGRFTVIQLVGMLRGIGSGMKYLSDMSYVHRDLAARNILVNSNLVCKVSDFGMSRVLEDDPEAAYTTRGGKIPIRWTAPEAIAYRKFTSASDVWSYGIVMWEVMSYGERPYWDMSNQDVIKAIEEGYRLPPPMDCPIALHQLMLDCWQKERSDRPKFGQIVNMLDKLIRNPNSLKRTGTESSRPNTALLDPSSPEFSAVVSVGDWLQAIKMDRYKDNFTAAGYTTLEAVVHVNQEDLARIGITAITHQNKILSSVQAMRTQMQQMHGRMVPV
T7 sequence (O96017 whole entry R145W): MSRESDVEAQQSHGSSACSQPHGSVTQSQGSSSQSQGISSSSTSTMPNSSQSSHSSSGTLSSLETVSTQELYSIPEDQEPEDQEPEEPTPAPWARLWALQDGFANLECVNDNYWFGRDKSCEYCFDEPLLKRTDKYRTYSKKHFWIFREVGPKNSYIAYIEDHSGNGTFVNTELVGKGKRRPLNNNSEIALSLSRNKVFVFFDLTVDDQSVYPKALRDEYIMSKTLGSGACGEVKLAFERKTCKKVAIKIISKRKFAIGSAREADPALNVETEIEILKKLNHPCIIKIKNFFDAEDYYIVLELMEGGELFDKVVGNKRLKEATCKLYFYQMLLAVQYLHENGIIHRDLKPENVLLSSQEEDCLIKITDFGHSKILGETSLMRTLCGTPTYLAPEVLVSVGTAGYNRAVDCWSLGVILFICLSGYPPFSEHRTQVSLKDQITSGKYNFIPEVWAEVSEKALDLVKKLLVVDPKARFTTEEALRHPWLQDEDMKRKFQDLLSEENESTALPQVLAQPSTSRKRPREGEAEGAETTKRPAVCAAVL
T2 sequence (P21731 whole entry): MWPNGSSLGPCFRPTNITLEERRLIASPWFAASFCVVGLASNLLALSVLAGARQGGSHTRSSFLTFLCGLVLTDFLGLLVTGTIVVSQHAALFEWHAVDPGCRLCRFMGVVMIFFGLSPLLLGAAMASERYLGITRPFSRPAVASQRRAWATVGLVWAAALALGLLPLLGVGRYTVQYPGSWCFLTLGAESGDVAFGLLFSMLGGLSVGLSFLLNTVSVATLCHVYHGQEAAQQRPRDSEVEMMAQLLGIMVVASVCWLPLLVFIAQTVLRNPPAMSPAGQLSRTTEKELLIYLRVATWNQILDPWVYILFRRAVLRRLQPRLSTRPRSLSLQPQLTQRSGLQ
T9 sequence (P11362 22-822 V561M): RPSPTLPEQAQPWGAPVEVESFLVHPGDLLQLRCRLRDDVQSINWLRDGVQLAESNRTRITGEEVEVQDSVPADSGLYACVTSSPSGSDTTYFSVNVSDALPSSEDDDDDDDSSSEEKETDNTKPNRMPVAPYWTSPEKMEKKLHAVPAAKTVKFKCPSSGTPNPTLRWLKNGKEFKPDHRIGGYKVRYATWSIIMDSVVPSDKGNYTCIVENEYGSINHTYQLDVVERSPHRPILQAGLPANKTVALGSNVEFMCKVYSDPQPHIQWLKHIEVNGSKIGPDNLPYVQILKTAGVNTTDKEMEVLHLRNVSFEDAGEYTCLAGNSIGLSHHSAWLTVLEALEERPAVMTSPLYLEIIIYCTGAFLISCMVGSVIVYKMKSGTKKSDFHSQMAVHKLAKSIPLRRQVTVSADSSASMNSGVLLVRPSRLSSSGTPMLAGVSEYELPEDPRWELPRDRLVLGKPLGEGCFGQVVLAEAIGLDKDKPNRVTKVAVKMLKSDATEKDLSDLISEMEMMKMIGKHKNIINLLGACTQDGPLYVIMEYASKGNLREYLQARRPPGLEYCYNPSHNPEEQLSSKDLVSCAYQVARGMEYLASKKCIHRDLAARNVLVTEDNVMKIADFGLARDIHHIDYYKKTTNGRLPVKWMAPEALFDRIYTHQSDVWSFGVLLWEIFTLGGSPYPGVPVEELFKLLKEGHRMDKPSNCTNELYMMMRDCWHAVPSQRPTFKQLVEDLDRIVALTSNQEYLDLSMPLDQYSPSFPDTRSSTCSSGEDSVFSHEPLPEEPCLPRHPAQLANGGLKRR
T6 sequence (Q96PF2 whole entry): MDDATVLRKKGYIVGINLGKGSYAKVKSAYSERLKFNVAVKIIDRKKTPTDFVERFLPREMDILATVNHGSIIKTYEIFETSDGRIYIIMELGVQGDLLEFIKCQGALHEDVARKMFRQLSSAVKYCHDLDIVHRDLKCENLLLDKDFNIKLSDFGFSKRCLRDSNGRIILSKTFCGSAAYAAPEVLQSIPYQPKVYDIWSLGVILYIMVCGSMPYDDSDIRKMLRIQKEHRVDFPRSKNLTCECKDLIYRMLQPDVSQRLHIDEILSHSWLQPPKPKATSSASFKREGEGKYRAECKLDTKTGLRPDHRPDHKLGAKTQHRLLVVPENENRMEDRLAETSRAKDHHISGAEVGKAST
T3 sequence (P10721 26-976 V560G): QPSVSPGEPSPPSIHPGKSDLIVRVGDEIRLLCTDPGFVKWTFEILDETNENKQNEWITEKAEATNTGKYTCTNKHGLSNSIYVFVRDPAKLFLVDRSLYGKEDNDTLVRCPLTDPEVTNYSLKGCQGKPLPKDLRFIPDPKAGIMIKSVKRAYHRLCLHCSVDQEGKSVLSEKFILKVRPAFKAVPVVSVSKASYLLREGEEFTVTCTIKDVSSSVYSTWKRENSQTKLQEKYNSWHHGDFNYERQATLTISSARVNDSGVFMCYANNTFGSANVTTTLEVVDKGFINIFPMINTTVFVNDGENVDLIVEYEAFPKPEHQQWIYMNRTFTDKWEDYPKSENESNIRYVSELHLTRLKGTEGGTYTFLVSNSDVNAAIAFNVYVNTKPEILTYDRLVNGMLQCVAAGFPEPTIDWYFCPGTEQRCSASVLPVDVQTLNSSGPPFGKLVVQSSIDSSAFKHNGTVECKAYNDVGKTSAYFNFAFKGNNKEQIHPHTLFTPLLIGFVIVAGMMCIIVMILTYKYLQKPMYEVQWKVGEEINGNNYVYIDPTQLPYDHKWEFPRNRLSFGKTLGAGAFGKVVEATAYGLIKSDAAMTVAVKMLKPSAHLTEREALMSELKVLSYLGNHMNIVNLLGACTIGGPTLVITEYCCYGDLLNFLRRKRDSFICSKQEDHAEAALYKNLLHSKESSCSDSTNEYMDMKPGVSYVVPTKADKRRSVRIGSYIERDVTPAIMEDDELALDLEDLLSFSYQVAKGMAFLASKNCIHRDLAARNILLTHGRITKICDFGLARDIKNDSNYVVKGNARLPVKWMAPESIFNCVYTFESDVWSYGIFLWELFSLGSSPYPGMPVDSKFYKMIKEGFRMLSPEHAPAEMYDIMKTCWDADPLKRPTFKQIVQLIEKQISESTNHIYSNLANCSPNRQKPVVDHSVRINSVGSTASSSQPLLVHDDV
T8 sequence (P31751 whole entry): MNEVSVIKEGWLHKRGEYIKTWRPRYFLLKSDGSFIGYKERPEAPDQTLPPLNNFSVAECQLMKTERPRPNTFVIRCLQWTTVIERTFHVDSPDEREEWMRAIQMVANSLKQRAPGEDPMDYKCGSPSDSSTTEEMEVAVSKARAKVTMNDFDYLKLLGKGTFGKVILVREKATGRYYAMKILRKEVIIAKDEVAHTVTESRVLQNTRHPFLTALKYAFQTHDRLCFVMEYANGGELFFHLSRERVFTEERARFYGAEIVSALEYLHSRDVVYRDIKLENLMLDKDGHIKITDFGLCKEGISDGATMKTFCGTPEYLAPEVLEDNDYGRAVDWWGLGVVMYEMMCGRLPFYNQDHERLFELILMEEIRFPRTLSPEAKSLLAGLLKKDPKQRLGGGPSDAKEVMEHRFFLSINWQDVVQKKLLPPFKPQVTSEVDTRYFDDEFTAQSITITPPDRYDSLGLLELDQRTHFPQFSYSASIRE

As a reminder, the inhibition is the share of the control response that was lost under treatment. On to `O=C1NCCC12CCN(c1c(Cl)cncc1-c1ccc(N3CCOCC3)cc1)CC2` [Compound 44, 8-(3-Chloro-5-(4-morpholin-4-ylphenyl)pyridin-4-yl)-2,8-diazaspiro[4.5]decan-1-one], for which the remaining activity at 1 µM in [1] was determined as 14%. In data set [2], the “glutathione adduct in an in vitro reactive metabolite assay” value is listed as “generated a glutathione adduct”. Also, the microsomal CLint at 1 μM in data set [3] was 290 µL/min/mg. Further, the inhibition at 10 µM in data set [4] turned out to be 14%.
As usually defined, the pIC50 is the negative decadic logarithm of the IC50, by convention in mol/L. In the case of `Cn1cc(-c2ccc(-c3cncc(Cl)c3N3CCC4(CCNC4=O)CC3)cc2)cn1` [Compound 74, 8-(3-Chloro-5-(4-(1-methyl-1H-pyrazol-4-yl)phenyl)pyridin-4-yl)-2,8-diazaspiro[4.5]decan-1-one], the pIC50 in [5] was 5.38; in data set [21], under 5.00. The remaining activity at 1 µM was -5% in data set [6]; -5% in [7]; -26% in [17]; -1% in [19]; 3% in data set [20]; -13% in data set [22]. Also, the remaining activity at 1 µM in [23] is -8%; in [24], -22%. For the same compound, the “% Control” value in [8] was -1%; in data set [9], 2%; in [10], -1%; in data set [11], 0%; in data set [12], -1%; in data set [13], 0%. Further, the “% Control” value in data set [14] is 0%; in data set [15], -4%; in [16], 0%. In addition, the “effect on endogenous levels of TCF1 or TCF4” value in [18] is given as “did not affect endogenous levels of TCF1 or TCF4”.
